The record followed here is ChEMBL document CHEMBL1148552, “Pulvinones as bacterial cell wall biosynthesis inhibitors” (Bioorg Med Chem Lett, 2006).

Values after ≈ are worked out from the molar mass of the structure shown.

A word on the MIC: it is the lowest concentration found to suppress growth. Read a high MIC as a need for much substance. What is called IC50 is the concentration that gives 50% inhibition. Lower therefore signals higher potency.

The subject of assay [1] is Staphylococcus aureus. The experiment in a line: Antibacterial activity against Staphylococcus aureus. Type of assay: functional. The settings on record: GC 4543.
Assay [2] concerns the target T1, UDP-N-acetylmuramate--L-alanine ligase (Staphylococcus aureus, UniProt O31211).
T1 sequence (O31211 whole entry): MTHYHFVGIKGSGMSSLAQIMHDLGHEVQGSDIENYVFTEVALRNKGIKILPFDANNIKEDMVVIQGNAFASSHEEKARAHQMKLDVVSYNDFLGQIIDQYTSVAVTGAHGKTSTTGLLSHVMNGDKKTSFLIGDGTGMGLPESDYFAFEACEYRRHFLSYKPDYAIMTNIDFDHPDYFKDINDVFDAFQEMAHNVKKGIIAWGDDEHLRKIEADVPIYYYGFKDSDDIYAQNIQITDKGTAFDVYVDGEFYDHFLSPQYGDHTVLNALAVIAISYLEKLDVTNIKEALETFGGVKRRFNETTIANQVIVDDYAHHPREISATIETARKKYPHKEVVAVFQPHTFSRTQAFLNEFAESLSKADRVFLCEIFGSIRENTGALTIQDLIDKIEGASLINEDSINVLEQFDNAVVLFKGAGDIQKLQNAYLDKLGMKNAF
Nature of the assay: Inhibitory activity against MurC in Staphylococcus aureus.

For a further assay, the system named is Streptococcus pneumoniae. The experiment in a line: Antibacterial activity against penicillin resistant Streptococcus pneumoniae. The following applies: GC 1894. Type of assay: functional.
Assay [3] relates to Staphylococcus aureus. The experiment in a line: Antibacterial activity against methicillin resistant Staphylococcus aureus. Type of assay: functional. The settings on record: GC 1131.
The subject of assay [4] is Enterococcus faecalis. The experiment in a line: Antibacterial activity against vancomycin resistant Enterococcus faecalis. Type of assay: functional. The settings on record: GC 2242.
Assay [5] deals with T2, UDP-N-acetylenolpyruvoylglucosamine reductase (Escherichia coli K-12, UniProt P08373).
T2 sequence (P08373 whole entry): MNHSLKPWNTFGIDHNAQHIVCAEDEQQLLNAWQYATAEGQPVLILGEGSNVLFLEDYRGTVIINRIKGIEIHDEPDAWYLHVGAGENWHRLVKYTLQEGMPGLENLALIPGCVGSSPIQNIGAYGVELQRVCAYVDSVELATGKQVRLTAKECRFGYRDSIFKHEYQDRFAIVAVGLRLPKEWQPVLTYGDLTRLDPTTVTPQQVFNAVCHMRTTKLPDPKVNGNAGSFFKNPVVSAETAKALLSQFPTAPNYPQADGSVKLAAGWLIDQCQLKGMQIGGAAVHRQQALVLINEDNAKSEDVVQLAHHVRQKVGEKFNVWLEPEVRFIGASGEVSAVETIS
Nature of the assay: Inhibitory activity against MurB in Escherichia coli.

For assay [6], the target named is T3, UDP-N-acetylmuramoylalanine--D-glutamate ligase (Staphylococcus aureus, UniProt P0A091).
T3 sequence (P0A091 whole entry): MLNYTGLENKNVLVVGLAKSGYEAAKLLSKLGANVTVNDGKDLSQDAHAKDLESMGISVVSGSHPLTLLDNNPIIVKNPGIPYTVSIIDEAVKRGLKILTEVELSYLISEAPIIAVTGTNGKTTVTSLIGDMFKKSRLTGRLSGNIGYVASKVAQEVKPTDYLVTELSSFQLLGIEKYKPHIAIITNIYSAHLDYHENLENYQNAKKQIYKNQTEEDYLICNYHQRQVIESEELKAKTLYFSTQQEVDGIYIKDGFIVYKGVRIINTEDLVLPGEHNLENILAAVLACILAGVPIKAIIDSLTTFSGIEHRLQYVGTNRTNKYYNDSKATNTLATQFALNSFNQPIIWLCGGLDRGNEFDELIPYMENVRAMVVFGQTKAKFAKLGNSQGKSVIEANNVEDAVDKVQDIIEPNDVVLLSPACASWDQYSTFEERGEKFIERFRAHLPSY
Nature of the assay: Inhibitory activity against MurD in Staphylococcus aureus.

For assay [7], the target named is UDP-N-acetylglucosamine 1-carboxyvinyltransferase (Escherichia coli K-12, UniProt P0A749). Nature of the assay: Inhibitory activity against MurA in Escherichia coli.
UDP-N-acetylglucosamine 1-carboxyvinyltransferase, sequence (P0A749 whole entry): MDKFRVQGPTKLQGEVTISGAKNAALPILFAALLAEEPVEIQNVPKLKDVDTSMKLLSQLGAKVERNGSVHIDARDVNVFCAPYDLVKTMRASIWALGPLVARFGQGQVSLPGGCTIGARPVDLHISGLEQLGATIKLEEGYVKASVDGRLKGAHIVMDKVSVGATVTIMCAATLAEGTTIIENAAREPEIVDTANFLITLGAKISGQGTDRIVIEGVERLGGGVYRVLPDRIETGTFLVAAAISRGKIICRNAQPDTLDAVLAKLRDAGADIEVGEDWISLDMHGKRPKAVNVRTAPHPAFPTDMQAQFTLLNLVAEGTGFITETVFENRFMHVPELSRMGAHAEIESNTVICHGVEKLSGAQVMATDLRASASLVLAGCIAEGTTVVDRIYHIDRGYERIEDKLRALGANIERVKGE
The subject of assay [8] is Enterococcus faecalis. Nature of the assay: Antibacterial activity against Enterococcus faecalis. Type of assay: functional. The following applies: GC 4555.
For assay [9], the target named is T4, UDP-N-acetylglucosamine 1-carboxyvinyltransferase 1 (Staphylococcus aureus subsp. aureus N315, UniProt P84058).
T4 sequence (P84058 whole entry): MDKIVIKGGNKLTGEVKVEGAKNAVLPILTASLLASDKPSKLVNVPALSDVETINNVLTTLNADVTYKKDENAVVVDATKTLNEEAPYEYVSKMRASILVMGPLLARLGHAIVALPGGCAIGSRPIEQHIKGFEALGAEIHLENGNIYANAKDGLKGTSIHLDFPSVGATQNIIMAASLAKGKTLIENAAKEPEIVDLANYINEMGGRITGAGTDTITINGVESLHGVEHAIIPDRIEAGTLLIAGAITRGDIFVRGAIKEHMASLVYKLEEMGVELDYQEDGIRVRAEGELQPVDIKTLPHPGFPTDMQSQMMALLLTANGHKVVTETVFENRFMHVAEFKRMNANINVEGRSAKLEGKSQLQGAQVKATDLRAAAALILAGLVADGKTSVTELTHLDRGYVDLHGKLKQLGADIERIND
Nature of the assay: Inhibitory activity against MurA in Staphylococcus aureus.

Regarding `Cc1cc(/C=C2\OC(O)=C(c3cccc(Cl)c3)C2=O)ccc1-c1ccccc1C(F)(F)F`, the MIC against Staphylococcus aureus [1] is 1 µg/mL (≈ 2.19 µM); in the assay on Streptococcus pneumoniae, no more than 0.12 µg/mL; in the assay on Staphylococcus aureus [3], 2 µg/mL (≈ 4.38 µM); against Enterococcus faecalis [4] it was 2 µg/mL (≈ 4.38 µM); with Enterococcus faecalis [8], 4 µg/mL (≈ 8.76 µM). For the same compound, the IC50 in assay [2] was 32.8 µM; in [5], 6.57 µM; in [6] it was 26.3 µM; in assay [7], 8.76 µM.

Take `COc1cc(/C=C2\OC(O)=C(c3cc(Cl)cc(Cl)c3)C2=O)ccc1-c1ccccc1C(F)(F)F`: the MIC in the assay with Staphylococcus aureus [1] was 0.5 µg/mL (≈ 0.986 µM); against Streptococcus pneumoniae, 0.5 µg/mL (≈ 0.986 µM); against Staphylococcus aureus [3] it was 0.5 µg/mL (≈ 0.986 µM); in the assay on Enterococcus faecalis [4], 1 µg/mL (≈ 1.97 µM); with Enterococcus faecalis [8], 2 µg/mL (≈ 3.94 µM). Also, the IC50 in assay [2] was 39.4 µM; in assay [5], 3.94 µM; in [6] it was 33.5 µM; in assay [7], 7.89 µM.

Regarding `Cc1cc(/C=C2\OC(O)=C(c3cc(Cl)cc(Cl)c3)C2=O)ccc1-c1ccccc1C(F)(F)F`, the MIC against Staphylococcus aureus [1] came to 0.5 µg/mL (≈ 1.02 µM); with Streptococcus pneumoniae, 0.5 µg/mL (≈ 1.02 µM); in the assay with Staphylococcus aureus [3], 0.5 µg/mL (≈ 1.02 µM); in the assay with Enterococcus faecalis [4], 1 µg/mL (≈ 2.04 µM); with Enterococcus faecalis [8], 2 µg/mL (≈ 4.07 µM). Further, the IC50 in assay [2] was greater than 50.9 µM; in [9], 4.07 µM; in assay [5] it was 6.11 µM; in [6] it was 48.9 µM.

For `Cc1ccccc1-c1ccc(/C=C2\OC(O)=C(c3cc(Cl)cc(Cl)c3)C2=O)cc1C`, the minimum inhibitory concentration (MIC) in the assay with Staphylococcus aureus [1] was 0.5 µg/mL (≈ 1.14 µM); in the assay with Streptococcus pneumoniae, no more than 0.12 µg/mL; against Staphylococcus aureus [3], 0.5 µg/mL (≈ 1.14 µM); against Enterococcus faecalis [4] it was 0.5 µg/mL (≈ 1.14 µM); against Enterococcus faecalis [8] it was 2 µg/mL (≈ 4.57 µM). The IC50 was 52.6 µM in assay [2], 2.29 µM in assay [5], 20.6 µM in [6] and 4.57 µM in assay [7].

In the case of `O=C1O/C(=C\c2cc(C(F)(F)F)ccc2Cl)C(O)=C1c1ccc(N2CCOCC2)c(F)c1`, the MIC is 128 µg/mL (≈ 272 µM) in the assay on Staphylococcus aureus [1]; 16 µg/mL (≈ 34.1 µM) in the assay on Streptococcus pneumoniae; 64 µg/mL (≈ 136 µM) against Staphylococcus aureus [3]; 128 µg/mL (≈ 272 µM) against Enterococcus faecalis [4]; 128 µg/mL (≈ 272 µM) against Enterococcus faecalis [8]. For the same compound, the IC50 in assay [2] is greater than 53.2 µM; in assay [5], 21.3 µM; in [6], greater than 53.2 µM; in assay [7] it was greater than 53.2 µM.

As for `O=C1O/C(=C\c2ccccc2-c2ccc(Cl)c(Cl)c2)C(O)=C1c1ccc(Cl)c(Cl)c1`, the MIC against Staphylococcus aureus [1] was 0.25 µg/mL (≈ 0.523 µM); against Streptococcus pneumoniae, no more than 0.12 µg/mL; with Staphylococcus aureus [3], 0.5 µg/mL (≈ 1.05 µM); against Enterococcus faecalis [4], 0.5 µg/mL (≈ 1.05 µM); against Enterococcus faecalis [8], 1 µg/mL (≈ 2.09 µM). Moreover, the IC50 in assay [2] was 37.6 µM; in assay [6], 10.5 µM; in assay [7] it was 6.27 µM.
